According to PMC2865235 (Journal of pharmaceutical and biomedical analysis, 2010):
Like-named read-outs stand apart in the source and are kept apart here.

Experiments:
ABCG2 = settings: cited from earlier work
ABCB1 = settings: cited from earlier work
[1] = human, 4 h
MCF-7 cells = settings: read-out: 72 h IC50, ref [2]; cited from earlier work
[2] = system: Topo I cleavage complexes; settings: drug 1 μM, compared with CPT or SN-38; ref [2]; cited from earlier work
P388 cells = settings: read-out: 72 h IC50, ref [2]; cited from earlier work
HCT-116 cells = settings: read-out: 72 h IC50, ref [2]; cited from earlier work
cell cycle = settings: in vitro; ref [2]; cited from earlier work

| Compound | Substrate for the efflux pump ABCG2 (ABCG2; ref [2]) | Substrate for ABCB1 (ABCB1) | Substrate for the efflux pump ABCG2 (ABCG2; not told) | Stability in plasma at room temperature [1] [%] | IC50 (MCF-7 cells) [µM] | Persistence of Topo I cleavage complexes after removal of drug [2] | IC50 (P388 cells) [µM] | IC50 (HCT-116 cells) [µM] | Cell cycle arrest (cell cycle) | Protein binding in human plasma [%] |
| --- | --- | --- | --- | --- | --- | --- | --- | --- | --- | --- |
| CC[C@@]1(O)C(=O)OCc2c1cc1n(c2=O)Cc2cc3ccccc3nc2-1 [Camptothecin, camptothecin] | good substrates | – | – | – | – | – | – | – | – | – |
| COc1cc2c3c(n(CCCN4CCOCC4)c(=O)c2cc1OC)-c1cc2c(cc1C3=O)OCO2 [NSC 724998] | – | not a substrate | not a substrate | – | – | – | – | – | – | – |
| CC[C@@]1(O)C(=O)OCc2c1cc1n(c2=O)Cc2cc3c(CN(C)C)c(O)ccc3nc2-1 [topotecan] | good substrates | – | – | – | – | – | – | – | – | – |
| COc1cc2c3c(n(CCCN4CCOCC4)c(=O)c2cc1OC)-c1cc2c(cc1C3=O)OCO2.Cl [NSC 743400] | – | – | – | > 94.3 | 0.56 | persisted longer | 0.3 | 1.2 | cell cycle arrest in both S and G(2)-M | > 98 |
| COc1cc2c3c(n(CCCn4ccnc4)c(=O)c2cc1OC)-c1cc2c(cc1C3=O)OCO2 [NSC 725776] | – | moderate substrate | moderate substrate | > 94.3 | 0.09 | persisted longer | < 0.03 | 0.13 | cell cycle arrest in both S and G(2)-M | > 98 |
| CCc1c2c(nc3ccc(O)cc13)-c1cc3c(c(=O)n1C2)COC(=O)[C@]3(O)CC [SN-38] | good substrates | – | – | – | – | – | – | – | – | – |
